Experiments:
APP/PS1 mice = assay: Thioflavin S staining / immunofluorescence analysis of amyloid plaques in brain; type: in vivo; conditions: IP once every 2.5 days for 45 days
Experimental: Adiponectin receptor-activating novel peptide (5AA1) was IP administered to 10 week old APP/PS1 mice once every 2.5 days for 45 days, and then, to prepare a slide section, the brains of the mice were fixed by transcardial perfusion of ice-cold 4% paraformaldehyde. The brains were fixed in 4% paraformaldehyde for 72 hours, and then, transferred to 20% sucrose and maintained at a temperature of 4° C. for 72 hours. The brains were placed in an optimal cutting temperature (OCT) compound (A.O., USA), frozen in liquid nitrogen, and sectioned into coronal plane (14 μm) in CM 3050C cryostat (Leica, Germany). Pictures of tissue sections were taken on ProbeOn Plus charged slides (Fisher, USA).
Immunofluorescence analysis was performed by using minor modifications of the method described in the existing study (Shah et al., 2014; Shah et al., 2015). Slides containing tissue sections were washed twice with a 0.01 M PBS solution for 15 minutes. Proteinase K was added to the tissue sections, which were then cultured at a temperature of 37° C. for 5 minutes. The tissue sections were then reacted in a blocking solution (5% normal goat serum, 0.3% Triton X-100, PBS) for 1 hour. The slides were reacted overnight with the primary antibody (the same antibody used in the ‘Western blot analysis’) and then reacted with secondary TRITC- or FITC-conjugated antibodies (diluted 1:50 in PBS; Santa Cruz) at room temperature for 90 minutes. The slides were dipped in Prolong Antifade reagent (Molecular Probe, Eugene, Oreg., USA) and stained. All stained slides were analyzed with a confocal laser scanning microscope (Flouview FV 1000). Amyloid plaques were visualized in brain slices after Thioflavin S staining. The brain slices were washed twice with 0.01 M PBS for 10 minutes, and then immersed in fresh 1% Thioflavin S solution at room temperature for 10 minutes. The brain slices were then immersed in 70% ethanol for 5 minutes, then washed twice with water, counterstained with propidium iodide (PI) and covered with cover glass.
Morphological analysis and signals were analyzed with Image J software (open source software provided by the US NIH), and the analysis results were expressed as IOD (Integral Optical Density). The ratio of the amyloid deposit site in the proposed area was also quantified by using Image-J software.

normal mouse = assay: Morris water maze test in normal (wild type) mice; type: in vivo; conditions: normal mouse treated with peptide, IP
Experimental: Male C57BL/6J wild type mice and double transgenic B6.Cg-Tg (APPswe, PSENdE9) 85Dbo Mmjax (APP/PS1) AD-model mice were obtained from Jackson Laboratories (Bar Harbor, Me., USA). The brains of the double transfected mice express Swedish mutation-containing chimeric mouse-human amyloid precursor protein (Mo/HuAPP695swe) and mutant human presenilin 1 protein (PS1-dE9). The mice were fed with an unlimited supply of food and water at an animal breeding ground of a university at a temperature of 23° C., at the relative humidity of 60±10% and in the black and light cycle of 12 h/12 h. […]
The Morris Underwater Maze Test System was constructed as a circular water tank with a diameter of 100 cm and a height of 40 cm containing 15.5 cm depth of water (temperature of 23±1° C.) which was opaque with white ink added. […] The delay time for escaping from the water maze (the time to find the hidden escape platform) was calculated for each trial. […] For the probe experiment, the platform was removed, each mouse was allowed to freely swim for 60 seconds, the amount of time the mouse spent in the target quadrant was measured, and the number of platform positions the mouse passed by (where the platform was located during the hidden platform training). […] All data were recorded by using video-tracking software (SMART, Panlab Harward Apparatus, Bioscience Company, Holliston, Mass., USA).

Substance: RGPCG (adiponectin receptor-activating peptide) [5AA1]
- amyloid β plaque in the cortex and hippocampus of the brain (APP/PS1 mice): remarkably reduced
- latency (time to find the hidden escape platform) (normal mouse): less than 10 seconds

From patent US10618937B2, “Method of treating Alzheimer's disease” (INDUSTRY-ACADEMIC COOPERATION FOUNDATION GYEONGSANG …, priority 2016, dated 2020)
